Data set [1] is described as follows: Microsome stability assay, human liver microsomes. It counts as in vitro ADME. Particulars: 1 μM compound, 0.5 mg/mL microsomal protein; for microsomal CLint at 1 h, 1 µM / half-life at 1 h, 1 µM / microsomal CLint at 1 μM / half-life at 1 μM: human, human liver microsomes, pooled, NADPH, 37° C.; for microsomal CLint at 1 h, 1 µM / microsomal CLint at 1 μM: read-out: Microsome Stability Human liver microsomes Cl; for half-life at 1 h, 1 µM / half-life at 1 μM: read-out: Microsome Stability Human liver microsomes T½. In outline:
(§1)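 Compound at 1 μM incubated at 37° C with pooled human or mouse liver microsomes (0.5 mg/mL protein) plus NADPH regenerating system, sampled at 0–60 min; a 60-min no-NADPH incubation also included. Single replicate; LC/MS/MS disappearance from analyte/internal standard peak area ratios, without standard curve.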
In general terms: Liver microsomes are vesicles of endoplasmic reticulum, rich in cytochrome P450 enzymes.

For data set [2], the target named is HSD17B13 (Homo sapiens (Human), UniProt Q7Z5P4). Description: HSD17B13 enzymatic inhibition assay (150 nM or 50 nM HSD17B13). The data set is classed as biochemical. Particulars: 50 nM HSD17B13; read-out: Inhibition of 50 nM of HSD17B13 IC50.
In data set [3] the target is HSD17B2 (Homo sapiens (Human), UniProt P37059). Briefly: HSD17B2 enzymatic blocking assay. As to conditions: 1.8 μM Estradiol, 650 μM NAD; read-out: Inhibition of HSD17B2 IC50. It counts as biochemical. The method, then:
To screen compounds of the disclosure for their ability to block HSD17B2 function, an enzymatic blocking assay was performed. For the assay, HSD17B2 activity was measured by detecting NADH formation from oxidation of Estradiol using a NADH Glo luminescence assay (Promega, #Cat. No. G9062). Compounds of the disclosure were evaluated in a dose titration assay where the compounds were titrated at 10-point dose curve using an Echo-555 liquid handling dispenser. HSD17B2 (SEQ ID NO: 3, expressed in mammalian cells) was added at a final concentration of 2 ng/μL in a buffer containing 50 mM Tris-HCl, pH 7.5, Pluronic F-127 0.05%, Tween20 0.01%, BSA 0.01% into a low volume white 384-well assay plate. Compounds were incubated with the enzyme for 15 min at 20° C. The assay reaction was then initiated by addition of 1.8 μM Estradiol substrate (Sigma, catalog #E2758-250MG, CAS: 50-28-2) and 650 μM NAD co-factor, and the reaction mixture was incubated for 45 min at 20° C. DMSO at a concentration of 0.5% was used as a negative control and a ‘no substrate’ control was used a positive control in the assay. Detection reagent was then added as per manufacturer's instructions, and the plate was subsequently incubated in the dark for 1 hour at room temperature, NADH generated was detected in the luminescence mode on the Envision Perkin Elmer plate reader. The IC50 values were determined using Dotmatics analysis software.

The nature of data set [4]: Microsome stability assay, mouse liver microsomes. It counts as in vitro ADME. As to conditions: 1 μM compound, 0.5 mg/mL microsomal protein. In outline: as §1
Data set [5] concerns the target HSD17B1 (Homo sapiens (Human), UniProt P14061). Description: HSD17B1 enzymatic blocking assay. The data set is classed as biochemical. As to conditions: 25 μM Estradiol, 500 μM NAD; read-out: Inhibition of HSD17B1 IC50. As to the method:
To screen compounds of the disclosure for their ability to block HSD17B1 function, an enzymatic blocking assay was performed. For the assay, HSD17B1 activity was measured by detecting NADH formation from oxidation of Estradiol using a NADH Glo luminescence assay (Promega, #Cat. No. G9062). […] Compounds were incubated with the enzyme for 30 minutes at room temperature. […] DMSO at a concentration of 0.5% was used as a negative control and a ‘no substrate’ control was used a positive control in the assay. Detection reagent was then added as per manufacturer's instructions, and the plate was subsequently incubated in the dark for 1 hour at room temperature, NADH generated was detected in the luminescence mode on the Envision Perkin Elmer plate reader. The IC50 values were determined using Dotmatics analysis software.

Molecules are shown by their SMILES.

Sequence of HSD17B2 (P37059 other isoform, or with tags, fused parts or gaps): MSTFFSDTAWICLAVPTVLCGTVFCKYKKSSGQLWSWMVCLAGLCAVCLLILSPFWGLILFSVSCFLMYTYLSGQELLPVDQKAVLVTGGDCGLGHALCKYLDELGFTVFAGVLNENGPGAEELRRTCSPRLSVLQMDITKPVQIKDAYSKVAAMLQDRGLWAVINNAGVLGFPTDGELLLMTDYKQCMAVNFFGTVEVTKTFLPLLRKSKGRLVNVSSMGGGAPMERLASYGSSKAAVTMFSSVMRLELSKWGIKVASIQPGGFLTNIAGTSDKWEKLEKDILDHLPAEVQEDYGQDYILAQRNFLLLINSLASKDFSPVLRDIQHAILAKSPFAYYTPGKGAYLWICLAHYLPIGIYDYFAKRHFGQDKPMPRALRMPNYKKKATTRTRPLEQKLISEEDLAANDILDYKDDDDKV
Sequence of HSD17B13 (Q7Z5P4 other isoform, or with tags, fused parts or gaps): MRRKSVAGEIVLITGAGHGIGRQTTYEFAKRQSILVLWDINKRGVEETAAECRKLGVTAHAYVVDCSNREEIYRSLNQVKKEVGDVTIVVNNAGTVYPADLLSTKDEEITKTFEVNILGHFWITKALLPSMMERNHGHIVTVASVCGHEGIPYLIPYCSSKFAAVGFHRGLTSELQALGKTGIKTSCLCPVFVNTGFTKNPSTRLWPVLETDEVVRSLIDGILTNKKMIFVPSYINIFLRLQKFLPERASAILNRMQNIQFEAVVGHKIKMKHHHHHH
Sequence of HSD17B1 (P14061 other isoform, or with tags, fused parts or gaps): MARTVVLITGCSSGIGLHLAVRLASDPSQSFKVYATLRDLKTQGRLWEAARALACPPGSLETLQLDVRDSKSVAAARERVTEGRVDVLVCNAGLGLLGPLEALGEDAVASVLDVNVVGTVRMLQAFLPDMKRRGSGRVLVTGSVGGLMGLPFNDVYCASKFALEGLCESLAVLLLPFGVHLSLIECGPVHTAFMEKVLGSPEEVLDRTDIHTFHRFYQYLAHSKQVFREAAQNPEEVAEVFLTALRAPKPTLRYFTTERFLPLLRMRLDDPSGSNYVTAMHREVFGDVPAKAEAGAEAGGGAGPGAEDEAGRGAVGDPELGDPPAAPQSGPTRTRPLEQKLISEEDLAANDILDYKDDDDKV

The term IC50 denotes the point on the concentration scale where inhibition reaches its midpoint. As for `O=C(NC1c2ccccc2Oc2ccccc21)c1ccc(C(F)(F)F)[nH]c1=O` [Compound 1A, 2-oxo-6-(trifluoromethyl)-N-(9H-xanthen-9-yl)-1,2-dihydropyridine-3-carboxamide], in data set [1], the “Microsome Stability Human liver microsomes % Remaining @60 min” value is 1.00%; the microsomal CLint at 1 h, 1 µM stood at 176 µL/min/mg; the half-life at 1 h, 1 µM was found to be 7.87 min. Further, the IC50 in data set [2] came to 0.53 µM. Further, in data set [3], the IC50 turned out to be 14.5 µM.
Consider `C=Cc1ccc(C(NC(=O)c2ccc(C(F)(F)F)[nH]c2=O)c2ccccc2)cc1` (centres unmarked) [Compound 3A, 2-oxo-N-(phenyl(4-vinylphenyl)methyl)-6-(trifluoromethyl)-1,2-dihydropyridine-3-carboxamide], for which the IC50 in data set [2] turned out to be 1.3 µM; in data set [3], 13.2 µM.
`CCc1ccc(C(NC(=O)c2ccc(C(F)(F)F)[nH]c2=O)c2ccccc2)cc1` (centres unmarked) [Compound 4A, N-((4-ethylphenyl)(phenyl)methyl)-2-oxo-6-(trifluoromethyl)-1,2-dihydropyridine-3-carboxamide]: in data set [1], the “Microsome Stability Human liver microsomes % Remaining @60 min” value is 1.12%; the microsomal CLint at 1 h, 1 µM came out at 156 µL/min/mg; the half-life at 1 h, 1 µM came out at 8.86 min. For the same compound, in data set [2], the IC50 worked out at 0.55 µM. In addition, the IC50 in data set [3] was 11.7 µM.
In the case of `O=C(NC(c1ccccc1)c1ccc(CC(F)(F)F)cc1)c1ccc(C(F)(F)F)[nH]c1=O` (centres unmarked) [Compound 12, 2-oxo-N-(phenyl(4-(2,2,2-trifluoroethyl)phenyl)methyl)-6-(trifluoromethyl)-1,2-dihydropyridine-3-carboxamide], in data set [1], the “Microsome Stability Human liver microsomes % Remaining @60 min” value is recorded as 84.70%, the microsomal CLint at 1 μM was below 9.6 µL/min/mg and the half-life at 1 μM was above 145 min. Besides, in data set [4] (60 min), the “Microsome Stability Mouse liver microsomes % Remaining @60 min” value is on record as 56.90%. Moreover, the microsomal CLint at 1 h, 1 µM in data set [4] (mouse, mouse liver microsomes, pooled, NADPH, 37° C., read-out: Microsome Stability Mouse liver microsomes Cl) amounted to 18.6 µL/min/mg. Further, the half-life at 1 h, 1 µM in data set [4] (mouse, mouse liver microsomes, pooled, NADPH, 37° C., read-out: Microsome Stability Mouse liver microsomes T½) is 74.5 min. The IC50 in data set [2] amounted to 0.39 µM. Moreover, the IC50 in data set [3] came to 15.6 µM.
Regarding `N#Cc1ccc(C(NC(=O)c2ccc(C(F)(F)F)[nH]c2=O)c2ccccc2)cc1` (centres unmarked) [Compound 12A, N-((4-cyanophenyl)(phenyl)methyl)-2-oxo-6-(trifluoromethyl)-1,2-dihydropyridine-3-carboxamide], the figures for the IC50 in data set [5], in data set [2] and in data set [3] were above 30 µM, 0.56 µM and 23.7 µM, respectively.
In the case of `O=C(NC(c1ccc(C(F)(F)F)cc1)c1ccc(C(F)(F)F)cc1)c1ccc(C(F)(F)F)[nH]c1=O` [Compound 14, N-(bis(4-(trifluoromethyl)phenyl)methyl)-2-oxo-6-(trifluoromethyl)-1,2-dihydropyridine-3-carboxamide], in data set [1], the “Microsome Stability Human liver microsomes % Remaining @60 min” value stood at 100.00%, the microsomal CLint at 1 μM is below 9.6 µL/min/mg and the half-life at 1 μM is above 145 min. Further, the IC50 in data set [2] was found to be 2.81 µM. For the same compound, in data set [3], the IC50 came to 14.2 µM.
Consider `O=C(NC(c1ccccc1)c1ccc(O)cc1)c1ccc(C(F)(F)F)[nH]c1=O` (centres unmarked) [Compound 19, N-((4-hydroxyphenyl)(phenyl)methyl)-2-oxo-6-(trifluoromethyl)-1,2-dihydropyridine-3-carboxamide], for which, in data set [1], the “Microsome Stability Human liver microsomes % Remaining @60 min” value was found to be 49.80%; the microsomal CLint at 1 h, 1 µM is 20.2 µL/min/mg; the half-life at 1 h, 1 µM is 68.6 min. The IC50 in data set [2] was found to be 1.91 µM. The IC50 in data set [3] was found to be 33.6 µM.
As for `O=C(NC(Cc1ccccc1)c1ccc(Cl)cc1)c1ccc(C(F)(F)F)[nH]c1=O` (centres unmarked) [Compound 19A, N-(1-(4-chlorophenyl)-2-phenylethyl)-2-oxo-6-(trifluoromethyl)-1,2-dihydropyridine-3-carboxamide], in data set [1], the “Microsome Stability Human liver microsomes % Remaining @60 min” value was 8.05%; the microsomal CLint at 1 h, 1 µM worked out at 88.6 µL/min/mg; the half-life at 1 h, 1 µM turned out to be 15.6 min. For the same compound, in data set [2], the IC50 is 0.99 µM. Further, the IC50 in data set [3] is 13.2 µM.
For `COc1ccc(C(C)(NC(=O)c2ccc(C(F)(F)F)[nH]c2=O)c2ccc(OC)cc2)cc1` [Compound 20A, N-(1,1-bis(4-methoxyphenyl)ethyl)-2-oxo-6-(trifluoromethyl)-1,2-dihydropyridine-3-carboxamide], the IC50 turned out to be 1.56 µM in data set [2] and 2.27 µM in data set [3].
For the compound `O=C(NC(c1ccc(OC(F)F)cc1)c1ccc(OC(F)F)cc1)c1ccc(C(F)(F)F)[nH]c1=O` [Compound 22, N-(bis(4-(difluoromethoxy)phenyl)methyl)-2-oxo-6-(trifluoromethyl)-1,2-dihydropyridine-3-carboxamide], the IC50 was found to be 0.89 µM in data set [2] and 12.8 µM in data set [3].
For the compound `COc1ccc(C(NC(=O)c2ccc(C(F)(F)F)[nH]c2=O)c2ccc(OC)cc2)cc1` [Compound 24, N-(bis(4-methoxyphenyl)methyl)-2-oxo-6-(trifluoromethyl)-1,2-dihydropyridine-3-carboxamide], in data set [1], the “Microsome Stability Human liver microsomes % Remaining @60 min” value came to 2.00%; the microsomal CLint at 1 h, 1 µM was 131 µL/min/mg; the half-life at 1 h, 1 µM turned out to be 10.6 min. The IC50 in data set [2] was 0.6 µM. For the same compound, in data set [3], the 50% inhibitory concentration (IC50) was 20.6 µM.
On to `COc1ccc(C(NC(=O)c2ccc(C(F)(F)F)[nH]c2=O)c2ccccc2)cc1` (centres unmarked) [Compound 26, N-((4-methoxyphenyl)(phenyl)methyl)-2-oxo-6-(trifluoromethyl)-1,2-dihydropyridine-3-carboxamide], for which, in data set [1], the “Microsome Stability Human liver microsomes % Remaining @60 min” value turned out to be 16.00%; the microsomal CLint at 1 h, 1 µM was 62.4 µL/min/mg; the half-life at 1 h, 1 µM came to 22.2 min. In addition, in data set [2], the half-maximal inhibitory concentration (IC50) stood at 1.2 µM. Besides, the half-maximal inhibitory concentration (IC50) in data set [3] was found to be 22.7 µM.
`O=C(NC(c1ccccc1)c1ccc(C(F)(F)F)cc1)c1ccc(C(F)(F)F)[nH]c1=O` (centres unmarked) [Compound 28, N-(phenyl(4-(trifluoromethyl)phenyl)methyl)-2-oxo-6-(trifluoromethyl)-1,2-dihydropyridine-3-carboxamide]: in data set [1], the “Microsome Stability Human liver microsomes % Remaining @60 min” value stood at 94.00%, the microsomal CLint at 1 μM was below 9.6 µL/min/mg and the half-life at 1 μM is above 145 min. In data set [2], the half-inhibitory concentration (IC50) stood at 1.3 µM. For the same compound, the IC50 in data set [3] is 12.6 µM.
For the compound `Cc1ccc2c(c1)-c1cc(C)ccc1C2NC(=O)c1ccc(C(F)(F)F)[nH]c1=O` [Compound 43, N-(3,6-dimethyl-9H-fluoren-9-yl)-2-oxo-6-(trifluoromethyl)-1,2-dihydropyridine-3-carboxamide], in data set [1], the “Microsome Stability Human liver microsomes % Remaining @60 min” value is 31.30%; the microsomal CLint at 1 h, 1 µM was 39.8 µL/min/mg; the half-life at 1 h, 1 µM came out at 34.8 min. The IC50 in data set [2] was 0.49 µM. Further, the IC50 in data set [3] amounted to 6.59 µM.
For `O=C(NC1c2ccc(F)cc2-c2cc(F)ccc21)c1ccc(C(F)(F)F)[nH]c1=O` [Compound 44, N-(3,6-difluoro-9H-fluoren-9-yl)-2-oxo-6-(trifluoromethyl)-1,2-dihydropyridine-3-carboxamide], the IC50 in data set [2] amounted to 0.53 µM; in data set [3], 12.8 µM.
Taken in the same sequence, the figures for `COc1ccc2c(c1)-c1cc(OC)ccc1C2NC(=O)c1ccc(C(F)(F)F)[nH]c1=O` [Compound 46, N-(3,6-dimethoxy-9H-fluoren-9-yl)-2-oxo-6-(trifluoromethyl)-1,2-dihydropyridine-3-carboxamide] were 1.07 µM and 38.1 µM.
Regarding `O=C(NC1CCc2ccccc21)c1ccc(C(F)(F)F)[nH]c1=O` (centres unmarked) [Compound 63, N-(2,3-dihydro-1H-inden-1-yl)-2-oxo-6-(trifluoromethyl)-1,2-dihydropyridine-3-carboxamide], the results for the IC50 in data set [2] and in data set [3] were 3.68 µM and above 100 µM, respectively.

Values taken from patent US11957687B2 (REGENERON PHARMACEUTICALS, INC., priority 2019, dated 2024).
